Measurements as given in patent US11726101B2, “Adrenomedullin assays and methods for determining mature adrenomedullin” (SPHINGOTEC GMBH, priority 2011, dated 2023).

How the values were obtained:
[1] = Stability of human Adrenomedullin in human Citrate plasma at 24° C., quantified by hADM immunoassay (MR-ADM/CT-ADM); format: in vitro ADME; conditions: for Average ADM recovery (N = 5) / Loss of immune reactivity %/h: human Citrate plasma; for Average ADM recovery (N = 5): 10 ng ADM/ml; for Average loss of immune reactivity: average over time points, human plasma, MR-ADM/CT-ADM sandwich assay
Protocol: At selected time points, aliquots were frozen at −20° C.

[2] = using other assay methods (Hinson 2000); cited from earlier work

Average ADM recovery (N = 5) ([1]; 0 h): 100 | Loss of immune reactivity %/h ([1]; 2 h): 0.4 %/h | Average ADM recovery (N = 5) ([1]; 2 h): 99.2 | Loss of immune reactivity %/h ([1]; 4 h): 0.8 %/h | Average ADM recovery (N = 5) ([1]; 4 h): 96.4 | Loss of immune reactivity %/h ([1]; 8 h): 1.5 %/h | Average ADM recovery (N = 5) ([1]; 8 h): 88.2 | Average loss of immune reactivity [1]: Average: 0.9%/h | Average loss of immune reactivity ([1]; listed as ADM): 0.9 %/h
Structure (SMILES): CC[C@H](C)[C@H](NC(=O)[C@H](CCC(N)=O)NC(=O)[C@H](Cc1c[nH]cn1)NC(=O)[C@H](C)NC(=O)[C@H](CC(C)C)NC(=O)[C@H](CCCCN)NC(=O)[C@H](CCC(N)=O)NC(=O)[C@@H](NC(=O)[C@@H](NC(=O)[C@@H]1CSSC[C@H](NC(=O)CNC(=O)[C@H](Cc2ccccc2)NC(=O)[C@H](CO)NC(=O)[C@H](CCCNC(=N)N)NC(=O)[C@H](CC(C)C)NC(=O)CNC(=O)[C@H](CCC(N)=O)NC(=O)[C@H](Cc2ccccc2)NC(=O)[C@H](CC(N)=O)NC(=O)[C@H](CC(N)=O)NC(=O)[C@H](CCSC)NC(=O)[C@H](CO)NC(=O)[C@H](CCC(N)=O)NC(=O)[C@H](CCCNC(=N)N)NC(=O)[C@@H](N)Cc2ccc(O)cc2)C(=O)N[C@@H](CCCNC(=N)N)C(=O)N[C@@H](Cc2ccccc2)C(=O)NCC(=O)N[C@@H]([C@@H](C)O)C(=O)N1)[C@@H](C)O)C(C)C)C(=O)N[C@@H](Cc1ccc(O)cc1)C(=O)N[C@@H](CCC(N)=O)C(=O)N[C@@H](Cc1ccccc1)C(=O)N[C@H](C(=O)N[C@@H](CC(=O)O)C(=O)N[C@@H](CCCCN)C(=O)N[C@@H](CC(=O)O)C(=O)N[C@@H](CCCCN)C(=O)N[C@@H](CC(=O)O)C(=O)N[C@@H](CC(N)=O)C(=O)N[C@H](C(=O)N[C@@H](C)C(=O)N1CCC[C@H]1C(=O)N[C@@H](CCCNC(=N)N)C(=O)N[C@@H](CO)C(=O)N[C@@H](CCCCN)C(=O)N[C@H](C(=O)N[C@@H](CO)C(=O)N1CCC[C@H]1C(=O)N[C@@H](CCC(N)=O)C(=O)NCC(=O)N[C@@H](Cc1ccc(O)cc1)C(N)=O)[C@@H](C)CC)C(C)C)[C@@H](C)O [hADM]
plasma half life [2]: 22 min
